According to patent US20100168084A1, “Therapeutic compounds and related methods of use” (priority 2008, published 2010):
Read-outs that look alike come from different tables or passages of the source.

Target: T1, sirtuin protein (Homo sapiens, UniProt Q96EB6)
T1 sequence (Q96EB6 2-747 limits assumed): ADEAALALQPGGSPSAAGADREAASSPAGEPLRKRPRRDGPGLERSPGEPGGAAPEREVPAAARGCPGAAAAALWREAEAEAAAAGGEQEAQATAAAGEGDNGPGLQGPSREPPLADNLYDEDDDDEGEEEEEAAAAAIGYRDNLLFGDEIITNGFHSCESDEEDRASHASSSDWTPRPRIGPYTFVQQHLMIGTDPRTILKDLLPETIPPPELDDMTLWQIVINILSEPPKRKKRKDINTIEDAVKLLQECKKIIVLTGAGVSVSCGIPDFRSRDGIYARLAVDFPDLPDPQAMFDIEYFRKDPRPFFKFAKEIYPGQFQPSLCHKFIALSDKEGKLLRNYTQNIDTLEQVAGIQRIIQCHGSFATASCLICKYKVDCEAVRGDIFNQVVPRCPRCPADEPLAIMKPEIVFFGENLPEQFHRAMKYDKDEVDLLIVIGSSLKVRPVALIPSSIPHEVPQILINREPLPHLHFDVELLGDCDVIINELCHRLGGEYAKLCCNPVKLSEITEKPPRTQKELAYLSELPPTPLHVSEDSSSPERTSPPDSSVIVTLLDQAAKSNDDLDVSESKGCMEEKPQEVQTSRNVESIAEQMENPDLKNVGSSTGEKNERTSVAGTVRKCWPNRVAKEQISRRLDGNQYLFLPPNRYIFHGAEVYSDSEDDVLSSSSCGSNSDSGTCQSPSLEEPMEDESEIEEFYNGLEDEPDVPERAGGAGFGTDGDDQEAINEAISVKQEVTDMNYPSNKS
Experiment: MS assay (IC50 MS ASSAY / ED50 MS / FOLD ACTIVATION MS)
Assay type: biochemical
Design: scale not given here

[1] = Table 4, class symbols A′, A, B, D, NA, legend not given
[2] = class symbols (A′, A, B, D, NA), no legend given
[3] = MS assay, class symbols, key not given
[4] = Table 4, class symbols A′, A, B, C, NA, legend not given

SMILES	ED50 MS ASSAY	ED50 MS ASSAY (Table 4)	ED50 MS ASSAY (Table 4, class symbols)	ED50 MS ASSAY [1]	ED50 MS ASSAY [2]	ED50 MS ASSAY [3]	ED50 MS ASSAY [4]	ED50 MS ASSAY (TABLE 4)
COc1cc(C(=O)Nc2ccccc2-c2nc3cccnc3[nH]2)ccc1CN1CCOCC1 [Compound 537]	A′	A′	A′	A′	A′	–	–	–
COc1cc(C(=O)Nc2ccccc2-c2nc3cccnc3[nH]2)ccc1CN1CCN(C)CC1 [Compound 539]	A′	A′	A′	A′	A′	–	–	–
O=C(Nc1ccccc1-c1cn2c(n1)CCCC2)c1ccc2ccccc2n1 [Compound 547]	A′	A′	A′	A′	A′	–	–	–
O=C(Nc1ccccc1-c1cn2c(n1)CCCC2)c1cnc2ccccc2n1 [Compound 548]	A′	A′	A′	A′	A′	–	–	–
O=C(Nc1ccccc1-c1nc2ccccc2[nH]1)c1ccc2ccccc2n1 [Compound 556]	A′	A′	A′	A′	A′	–	–	–
COc1cc(C(=O)Nc2ccccc2-c2nc3ccccc3[nH]2)ccc1CN1CCNCC1 [Compound 558]	A′	A′	A′	A′	A′	–	–	–
COc1ccc(C(=O)Nc2ccc(-c3nc4ccncc4o3)s2)c(OC)c1 [Compound 561]	A′	A′	A′	A′	A′	–	–	–
COc1cc(OC)cc(C(=O)Nc2ccc(-c3nc4ccncc4o3)s2)c1 [Compound 562]	A′	A′	A′	A′	A′	–	–	–
COc1cc(C(=O)Nc2ccccc2-c2nc3ccccc3[nH]2)ccc1CN1CCCC1 [Compound 587]	A′	A′	A′	A′	A′	–	–	–
COc1cc(OC)cc(C(=O)Nc2ccccc2-c2nc3cc(CN4CCNCC4)cnc3s2)c1 [Compound 589]	A′	A′	A′	A′	A′	–	–	–
Cc1ccc(C(=O)Nc2ccccc2-c2nc3cc(CN4CCNCC4)cnc3s2)cc1C [Compound 591]	A′	A′	A′	A′	A′	–	–	–
CN(C)c1cccc(C(=O)Nc2ccccc2-c2nc3cc(CN4CCNCC4)cnc3s2)c1 [Compound 593]	A′	A′	A′	A′	A′	–	–	–
O=C(Nc1ccccc1-c1cn2c(CN3CCN(Cc4ccccc4)CC3=O)csc2n1)c1cnc2ccccc2n1 [Compound 628]	A′	A′	A′	A′	A′	–	–	–
COc1cc(C(=O)Nc2ccccc2-c2nc3ncccc3o2)ccc1CN1CCOCC1 [Compound 631]	A′	A′	A′	A′	A′	–	–	–
CN(C)CCOCc1csc2nc(-c3ccccc3NC(=O)c3cnc4ccccc4n3)cn12 [Compound 647]	A′	A′	A′	A′	A′	–	–	–
CN1CCN(C(=O)Cc2csc3nc(-c4ccccc4NC(=O)c4cnc5ccccc5n4)cn23)CC1 [Compound 649]	A′	A′	A′	A′	A′	–	–	–
COc1cc(NC(=S)Nc2cc(-c3nc4ncccc4o3)ccn2)cc(OC)c1 [Compound 661]	A′	A′	A′	A′	A′	–	–	–
O=C(Nc1ccccc1-c1cn2c(CNCC(O)CO)csc2n1)c1cnc2ccccc2n1 (centres unmarked) [Compound 676]	A′	A′	A′	A′	A′	–	–	–
N#Cc1cccc(C(=O)Nc2ccccc2-c2nc3cc(CN4CCOCC4)cnc3s2)c1 [Compound 685]	A′	A′	–	–	–	A′	A′	–

The next lines start with the values.

ED50 MS ASSAY	ED50 MS ASSAY (Table 4)	ED50 MS ASSAY (Table 4, class symbols)	ED50 MS ASSAY [1]	ED50 MS ASSAY [2]	ED50 MS ASSAY [3]	ED50 MS ASSAY [4]	ED50 MS ASSAY (TABLE 4)	SMILES
A′	A′	A′	A′	A′	–	–	–	O=C(Nc1ccccc1-c1cn2c(CN3CCNCC3)csc2n1)c1cnccn1 [Compound 543]
A′	A′	A′	A′	A′	–	–	–	N#Cc1cccc(C(=O)Nc2ccccc2-c2nc3cc(CN4CCNCC4)cnc3s2)c1 [Compound 592]
A′	A′	A′	A′	A′	–	–	–	O=C(Nc1ccccc1-c1cn2c(CN3CCOCC3)csc2n1)c1cnc2ccccc2n1 [Compound 617]
A′	A′	A′	A′	A′	–	–	–	O=C(Nc1ccccc1-c1cn2c(CN3CCCCC3)csc2n1)c1cnc2ccccc2n1 [Compound 618]
A′	A′	A′	A′	A′	–	–	–	O=C(Nc1ccccc1-c1cn2c(CN3CCCC3)csc2n1)c1cnc2ccccc2n1 [Compound 619]
A′	A′	A′	A′	A′	–	–	–	COc1cc(C(=O)Nc2ccccc2-c2cn3c(CN4CCCC4)csc3n2)cc(OC)c1OC [Compound 620]
A′	A′	A′	A′	A′	–	–	–	O=C(Nc1ncccc1-c1cn2c(CN3CCOCC3)csc2n1)c1cnc2ccccc2n1 [Compound 621]
A′	A′	A′	A′	A′	–	–	–	O=C(Nc1ccccc1-c1nc2cc(CN3CCNCC3)cnc2s1)c1cnc2ccccc2n1 [Compound 622]
A′	A′	A′	A′	A′	–	–	–	O=C(Nc1ccccc1-c1cn2c(CN3CCNCC3)csc2n1)c1cc2ccccc2o1 [Compound 624]
A′	A′	A′	A′	A′	–	–	–	O=C(Nc1ccccc1-c1cn2c(CN3CCNCC3)csc2n1)c1cc(-c2ccccc2)ncn1 [Compound 625]
A′	A′	A′	A′	A′	–	–	–	O=C(Nc1ccccc1-c1cn2c(CN3CCNCC3)csc2n1)c1cnc2ccccc2c1 [Compound 645]
A′	A′	A′	A′	A′	–	–	–	O=C(Nc1ccccc1-c1cn2c(CO)csc2n1)c1cnc2ccccc2n1 [Compound 648]
A′	A′	A′	A′	A′	–	–	–	CC(=O)N1CCN(Cc2csc3nc(-c4ccccc4NC(=O)c4cnc5ccccc5n4)cn23)CC1 [Compound 651]
A′	A′	A′	A′	A′	–	–	–	O=C(Nc1ccccc1-c1cn2c(CCN3CCNCC3)csc2n1)c1cnc2ccccc2n1 [Compound 680]
A′	A′	–	–	–	A′	A′	A′	O=C(Nc1ccccc1-c1cn2c(CN3CCNCC3)csc2n1)c1cc(F)cc(F)c1 [Compound 695]
A′	A′	–	–	–	A′	A′	A′	O=C(Nc1ccccc1-c1cn2c(CN3CCNCC3)csc2n1)c1cccc(OC(F)(F)F)c1 [Compound 698]
A′	A′	–	–	–	A′	A′	A′	Cc1csc2nc(-c3ccccc3NC(=O)c3cnc4ccccc4n3)cn12 [Compound 707]
